“And” between values parts separate entries of the source, which are not always exact repeats. Equal values may be shown once. Read-outs that look alike come from different tables or passages of the source.
Legend:
[1] = tested on: HIV-1 NLRepRlucP373S ΔV370; assay type: cell-based; conditions: for log10 reduction in virus, single cycle antiviral assay, maximal inhibition: ΔV370, calculated from SC MPI; for SC Assay MPI (%): ΔV370 virus
[2] = tested on: HIV-1 NLRepRlucP373S V362I; experiment: microbe, parasite or virus in culture; assay type: cell-based; conditions: for log10 reduction in virus, multiple cycle antiviral assay, maximal inhibition: V362I, calculated from MC MPI; for EC50: Human immunodeficiency virus 1, V362I virus
[3] = tested on: HIV-1 NLRepRlucP373S T371A; experiment: microbe, parasite or virus in culture; assay type: cell-based; conditions: Human immunodeficiency virus 1, MC assay
V362I HIV-1 Gag VLPs = target: T1, V362I HIV-1 Gag VLPs (Human immunodeficiency virus type 1 group M subtype B, UniProt P03348, V362I); experiment: biochemical; assay type: binding; parameters: Kd FC vs. WT: unit not given beside the values
T1 construct: constructed to encode full length HIV-1 LAI Gag; made in house; host or cells: 293T cells, transfected with pGagOpt plasmid

[4] = tested on: HIV-1 NLRepRlucP373S V370A; experiment: microbe, parasite or virus in culture; assay type: cell-based; conditions: for log10 reduction in virus, multiple cycle antiviral assay, maximal inhibition: V370A, calculated from MC MPI; for EC50: Human immunodeficiency virus 1, V370A virus
[5] = tested on: LAI pseudotyped NLRepRlucP373 Δenv; assay type: cell-based; conditions: for Inhibition of luciferase activity in the infection stage: compound added at the transfection step (first step); for Inhibition of luciferase production: compound added only at the infection stage (second step)
[6] = target: T2, CA/SP1 cleavage of WT Gag VLPs by HIV-1 protease (Human immunodeficiency virus type 1 group M subtype B, UniProt P03348); assay type: biochemical; conditions: 3 μM MI
T2 construct: constructed to encode full length HIV-1 LAI Gag; made in house; host or cells: Gag VLPs from transfected 293T cells

WT HIV-1 Gag VLPs = target: T3, WT HIV-1 Gag VLPs (Human immunodeficiency virus type 1 group M subtype B, UniProt P03348); experiment: SPA radiolabeled competition binding assay, WT VLPs; parameters: Kd FC vs. WT: unit not given beside the values
T3 construct: constructed to encode full length HIV-1 LAI Gag; made in house; host or cells: 293T cells, transfected with pGagOpt plasmid; VLPs pelleted from supernatant

[7] = tested on: HIV-1 NLRepRlucP373S Q369H; experiment: microbe, parasite or virus in culture; assay type: cell-based; conditions: Human immunodeficiency virus 1, MC assay
[8] = tested on: HIV-1 NLRepRlucP373S ΔV370; experiment: microbe, parasite or virus in culture; assay type: cell-based; conditions: for EC50: Human immunodeficiency virus 1; for log10 reduction in virus, multiple cycle antiviral assay, maximal inhibition: ΔV370, calculated from MC MPI
V370A HIV-1 Gag VLPs = target: T4, V370A HIV-1 Gag VLPs (Human immunodeficiency virus type 1 group M subtype B, UniProt P03348, V370A); experiment: biochemical; assay type: binding; parameters: Kd FC vs. WT: unit not given beside the values
T4 construct: constructed to encode full length HIV-1 LAI Gag; made in house; host or cells: 293T cells, transfected with pGagOpt plasmid

[9] = tested on: HIV-1 NLRepRlucP373S (WT); assay type: cell-based; conditions: for SC Assay MPI (%): WT virus; for log10 reduction in virus, single cycle antiviral assay, maximal inhibition: WT, calculated from SC MPI
[10] = tested on: HIV-1 NLRepRlucP373S V370A; assay type: cell-based; conditions: for SC Assay MPI (%): V370A virus; for log10 reduction in virus, single cycle antiviral assay, maximal inhibition: V370A, calculated from SC MPI
[11] = target: CA/SP1 cleavage of ΔV370 Gag VLPs by HIV-1 protease (Human immunodeficiency virus type 1 group M subtype B, UniProt P03348, DEL370-370); experiment: HIV-1 VLP protease cleavage assay (LC/MS), ΔV370 VLPs; assay type: biochemical; conditions: 3 μM MI
ΔV370 HIV-1 Gag VLPs = ΔV370 HIV-1 Gag VLPs (Human immunodeficiency virus type 1 group M subtype B, UniProt P03348, DEL370-370); experiment: SPA radiolabeled competition binding assay, ΔV370 VLPs; parameters: Kd FC vs. WT: unit not given beside the values; conditions: for Kd FC vs. WT: ΔV370 VLP
[12] = tested on: HIV-1 NLRepRlucP373S ΔT371; experiment: microbe, parasite or virus in culture; assay type: cell-based; conditions: for EC50: Human immunodeficiency virus 1, MC assay
[13] = tested on: HIV-1 NLRepRlucP373S V370A/Δ371T; experiment: microbe, parasite or virus in culture; assay type: cell-based; conditions: for EC50: Human immunodeficiency virus 1, MC assay
[14] = tested on: HIV-1 NLRepRlucP373S V370M; experiment: microbe, parasite or virus in culture; assay type: cell-based; conditions: for EC50: Human immunodeficiency virus 1, MC assay
[15] = tested on: HIV-1 NLRepRlucP373S (WT); experiment: microbe, parasite or virus in culture; assay type: cell-based; conditions: for MC Assay MPI (%): maximal percent inhibition at two highest drug concentrations
[16] = from mean C24 and free fraction of 0.14
HIV-1 = conditions: cited from earlier work

SMILES	log10 reduction in virus, single cycle antiviral assay, maximal inhibition [1] [log10]	SC Assay MPI (%) [1]	MC Assay MPI (%) ([2]; V362I virus)	log10 reduction in virus, multiple cycle antiviral assay, maximal inhibition [2] [log10]	EC50 [3] [nM]	Kd FC vs. WT (V362I HIV-1 Gag VLPs; V362I VLP)	MC Assay MPI (%) ([4]; V370A virus)	log10 reduction in virus, multiple cycle antiviral assay, maximal inhibition [4] [log10]	Inhibition of luciferase activity in the infection stage [5]	Inhibition of CA/SP1 cleavage ([6]; 4 hours)	Kd FC vs. WT (WT HIV-1 Gag VLPs; WT VLP)	EC50 ([8]; ΔV370 virus, MC assay) [nM]	MC Assay MPI (%) ([8]; ΔV370 virus)	Kd FC vs. WT (V370A HIV-1 Gag VLPs; V370A VLP)	SC Assay MPI (%) [9]	SC Assay MPI (%) [10]	EC50 ([2]; MC assay) [nM]	EC50 [12] [nM]	EC50 [13] [nM]	EC50 [14] [nM]	also measured
C=C(C)[C@@H]1CC[C@]2(C(=O)O)CC[C@]3(C)[C@H](CC[C@@H]4[C@@]5(C)CC[C@H](OC(=O)CC(C)(C)C(=O)O)C(C)(C)[C@@H]5CC[C@]43C)[C@@H]12 [BVM, bevirimat, reference compound]	0.06	-26% and -25.6%	81.3 +/- 2.0% and 81.3%	-0.73	40	2.9	65.4 +/- 3.8% and 65.4%	-0.46	inhibiting luciferase production only when added in the first step	1%	1.0	> 10000	9.2+/- 6.3% and 9% and 9.2%	9.1	82.3 +/- 2.7% and 82% and 82.3%	19% and 19.0 +/- 3.5%					Inhibition of CA/SP1 cleavage ([6]; 2 hours): 39%; EC50 [7]: 7 nM; log10 reduction in virus, multiple cycle antiviral assay, maximal inhibition [8]: -0.04 log10; log10 reduction in virus, single cycle antiviral assay, maximal inhibition [9]: -0.71 log10; log10 reduction in virus, single cycle antiviral assay, maximal inhibition [10]: -0.08 log10; Inhibition of CA/SP1 cleavage ([11]; whole time course): not inhibitory at any time point; Kd FC vs. WT (ΔV370 HIV-1 Gag VLPs): 48
Cc1c(O)cccc1C(=O)N[C@@H](CSc1ccccc1)[C@H](O)CN1C[C@H]2CCCC[C@H]2C[C@H]1C(=O)NC(C)(C)C [NFV, nelfinavir, reference compound]			100%				99.9%		luciferase activity is inhibited			5.2			99.3%	99.0%	4.3	2	5.7	4.5	FC = EC50 (SDM)/EC50 (WT) ([2]; V362I virus, MC assay): 1.0; EC50 ([4]; MC assay): 4.1 nM; FC = EC50 (SDM)/EC50 (WT) ([4]; V370A virus, MC assay): 1.0; FC = EC50 (SDM)/EC50 (WT) ([12]; ΔT371 virus, MC assay): 0.5; Inhibition of luciferase production [5]: luciferase production is not inhibited; FC = EC50 (SDM)/EC50 (WT) ([13]; MC assay): 1.3; FC = EC50 (SDM)/EC50 (WT) ([14]; V370M virus, MC assay): 1.0; FC = EC50 (SDM)/EC50 (WT) ([8]; ΔV370 virus, MC assay): 1.2; EC50 ([15]; Human immunodeficiency virus 1, WT virus, MC assay): 4.3 nM; FC = EC50 (SDM)/EC50 (WT) ([15]; WT virus, MC assay): 1.0; MC Assay MPI (%) ([15]; WT virus): 100%
C=C(C)[C@@H]1CC[C@]2(NCCN3CCS(=O)(=O)CC3)CC[C@]3(C)[C@H](CC[C@@H]4[C@@]5(C)CC=C(c6ccc(C(=O)O)cc6)C(C)(C)[C@@H]5CC[C@]43C)[C@@H]12 [BMS-955176]	-0.27	45.9%	93.8 +/- 1.8% and 93.8%	-1.20	2	1.3	98.2 +/- 1.3% and 98.2%	-1.73	inhibiting luciferase production only when added in the first step	sustained inhibition	1.0	13	91.9 +/- 4.4% and 92% and 91.9%	2	93.0 +/- 2.5% and 93%	76.5 +/- 3.0% and 76.5%	4.5	7.3	6.6	2.8	Kd (V362I HIV-1 Gag VLPs): 4.3 nM; EC50 ([4]; MC assay): 2.7 nM; Kd (WT HIV-1 Gag VLPs): 3.2 nM; Mean free concentration [16]: 213 nM; log10 reduction in virus, multiple cycle antiviral assay, maximal inhibition [8]: -1.09 log10; Kd (V370A HIV-1 Gag VLPs): 6.5 nM; MC Assay MPI (%) ([15]; WT virus): 100 +/- 0.4% and 100%; log10 reduction in virus, multiple cycle antiviral assay, maximal inhibition ([15]; WT, calculated from MC MPI): < -2.00 log10; log10 reduction in virus, single cycle antiviral assay, maximal inhibition [9]: -1.15 log10; log10 reduction in virus, single cycle antiviral assay, maximal inhibition [10]: -0.64 log10; Clinical VLR, maximal median HIV-1 log10 RNA reduction (HIV-1; subtype B Gag polymorphs (compared to V370A, V362I), 40 mg): -1.71 log10; Clinical VLR, maximal median HIV-1 log10 RNA reduction (HIV-1; subtype B WT genotype, 40 mg QD, 10 day monotherapy): -1.75 log10; Clinical VLR, maximal median HIV-1 log10 RNA reduction (HIV-1; subtype C viruses (compared to ΔV370), 40 mg): -1.35 log10; Inhibition of CA/SP1 cleavage ([11]; 4 hour time point): 13%; Kd (ΔV370 HIV-1 Gag VLPs): 33.6 nM; Kd FC vs. WT (ΔV370 HIV-1 Gag VLPs): 10
C=C(C)[C@@H]1CC[C@]2(C(=O)O)CC[C@]3(C)[C@H](CC[C@@H]4[C@@]5(C)CC=C(c6ccc(C(=O)O)cc6)C(C)(C)[C@@H]5CC[C@]43C)[C@@H]12 [BMS-1]			71.4 +/- 5.4% and 71.4%		28	1.9					1.0	> 6000	3.7 +/- 2.9% and 3.7%	7.0			213	292	> 10000	> 4000	Kd (V362I HIV-1 Gag VLPs; V362I VLP, competition displacement of [3H]-BMS-977660, read-out: Kd): 49 nM; Kd (WT HIV-1 Gag VLPs; WT VLP, competition displacement of [3H]-BMS-977660, read-out: Kd): 25.4 nM; Kd (V370A HIV-1 Gag VLPs; V370A VLP, competition displacement of [3H]-BMS-977660, read-out: Kd): 177 nM
COc1ccnc2[nH]cc(C(=O)C(=O)N3CCN(C(=O)c4ccccc4)C[C@H]3C)c12 [BMS-378806, 4-benzoyl-1-[(4-methoxy-1H-pyrrolo[2,3-b]pyridin-3-yl)oxoacetyl]-2-(R)-methylpiperazine]																					Inhibition of luciferase production [5]: fully active
